Like-named read-outs stand apart in the source and are kept apart here.
Experiments:
[1] = target: T1, Pichia alcohol oxidase (Komagataella phaffii, UniProt F2QY27); details: crude enzyme saturated with salt crystals; assayed 1-2 minutes later
T1 sequence (F2QY27 2-663 limits assumed): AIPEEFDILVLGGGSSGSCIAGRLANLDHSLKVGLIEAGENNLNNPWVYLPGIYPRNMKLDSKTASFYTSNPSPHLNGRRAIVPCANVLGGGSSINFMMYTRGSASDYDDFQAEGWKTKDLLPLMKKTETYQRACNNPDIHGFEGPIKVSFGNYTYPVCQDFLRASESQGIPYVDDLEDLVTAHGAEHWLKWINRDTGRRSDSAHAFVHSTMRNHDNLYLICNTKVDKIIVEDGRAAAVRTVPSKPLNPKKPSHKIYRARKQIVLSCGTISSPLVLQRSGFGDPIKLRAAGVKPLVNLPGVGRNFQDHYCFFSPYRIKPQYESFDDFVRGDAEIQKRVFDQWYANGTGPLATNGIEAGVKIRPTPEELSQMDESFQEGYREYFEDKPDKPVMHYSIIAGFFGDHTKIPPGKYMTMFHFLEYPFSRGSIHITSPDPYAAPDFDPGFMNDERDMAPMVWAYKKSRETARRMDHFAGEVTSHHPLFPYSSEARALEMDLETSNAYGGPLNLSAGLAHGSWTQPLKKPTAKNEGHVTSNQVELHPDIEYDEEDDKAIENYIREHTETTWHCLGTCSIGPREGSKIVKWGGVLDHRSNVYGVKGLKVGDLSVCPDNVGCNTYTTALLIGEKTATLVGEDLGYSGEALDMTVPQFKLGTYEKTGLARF
Procedure: The alcohol oxidase activity for reaction with methanol was determined by the following assay procedure (dye-peroxidase method). A dye-buffer mixture was prepared by mixing 0.1 mL of an o-dianisidine solution (1 weight % o-dianisdine in water) with 12 mL of aerated 0.1 M sodium phosphate buffer (pH 7.5). The assay mixture was prepared with 2.5 mL of the dye-buffer mixture, 50 μL of methanol, 10 μL of a peroxidase solution (1 mg of horse-radish peroxidase-Sigma, Type II), and 25 μL of the alcohol oxidase solution. The assay mixture was maintained at 25° C. in a 4×1×1 cm cuvette and the increase in absorbance by the dye at 460 nm was recorded for 2 to 4 minutes. The enzyme activity was calculated by [formula] wherein 11.5 is a factor based on a standard curve prepared with known aliquots of H2 O2 and ΔA is the change in absorbance during the experimental interval.

[2] = target: T2, purified Pichia alcohol oxidase (Komagataella phaffii, UniProt F2QY27); assay: biochemical; type: biochemical, Pichia pastoris
T2 construct: saturated solution of purified Pichia alcohol oxidase; endogenous in cells
T2 sequence (F2QY27 2-663 limits assumed): T1 sequence (F2QY27 2-663 limits assumed)
Procedure: A series of solutions were prepared by combining 3.9 mL standard phosphate buffer (pH 7.5) having NaN3 (g/l) as set forth in Table 8, 15 μL saturated solution of purified Pichia alcohol oxidase, and 50 μL methanol solution (% V/V in H2 O). Reaction velocity V (rate of methanol oxidation in the presence of alcohol oxidase) was monitored by a dissolved oxygen probe by following oxygen consumption (oxygen is consumed as alcohol substrate, S, is oxidized in the presence of the enzyme).

[3] = target: T1, Pichia alcohol oxidase
Procedure: The samples are allowed to stand at room temperature for 15 minutes. Color and enzyme activity are monitored at that time.

[4] = target: Hansenula polymorpha alcohol oxidase (Pichia angusta, UniProt P04841); details: 1 mL crude Hansenula polymorpha enzyme preparation, a few crystals (one mg)
Procedure: Fermentation effluent from the aerobic fermentation of Hansenula polymorpha (prepared as described in Example II) was adjusted to pH 7.5 with concentrated ammonium hydroxide. Sample was homogenized and disrupted on a Dyno-Mill Model KDL using a 0.6 L vessel in a continuous operation at 30° C. using belt combination #3 and a flow of 20-30 mL/hr. The beads were lead-free glass beads with a diameter of 0.3-0.5 mm. The resulting homogenate was centrifuged for 20 minutes at 10,000×g to yield a cell-free supernatant.
One mL of this crude enzyme preparation was mixed with a few crystals (qualitative--one mg) of NaN3 is a test tube.

[5] = target: alcohol oxidase (Komagataella phaffii, UniProt F2QY27)
Procedure: 3 mL of purified enzyme containing 3 mg/mL enzyme (crystallized as described in Example I) were placed in a 1-cm quartz cuvette. The solution was scanned from 350-550 nm.
where [formula] ΔA522 =change in absorbance at 522 nm upon NaN3 addition, and
ΔA522^max =total change in absorbance at 522 nm upon saturation of enzyme solution with NaN3.

Sequence of Hansenula polymorpha alcohol oxidase (P04841 2-664 limits assumed): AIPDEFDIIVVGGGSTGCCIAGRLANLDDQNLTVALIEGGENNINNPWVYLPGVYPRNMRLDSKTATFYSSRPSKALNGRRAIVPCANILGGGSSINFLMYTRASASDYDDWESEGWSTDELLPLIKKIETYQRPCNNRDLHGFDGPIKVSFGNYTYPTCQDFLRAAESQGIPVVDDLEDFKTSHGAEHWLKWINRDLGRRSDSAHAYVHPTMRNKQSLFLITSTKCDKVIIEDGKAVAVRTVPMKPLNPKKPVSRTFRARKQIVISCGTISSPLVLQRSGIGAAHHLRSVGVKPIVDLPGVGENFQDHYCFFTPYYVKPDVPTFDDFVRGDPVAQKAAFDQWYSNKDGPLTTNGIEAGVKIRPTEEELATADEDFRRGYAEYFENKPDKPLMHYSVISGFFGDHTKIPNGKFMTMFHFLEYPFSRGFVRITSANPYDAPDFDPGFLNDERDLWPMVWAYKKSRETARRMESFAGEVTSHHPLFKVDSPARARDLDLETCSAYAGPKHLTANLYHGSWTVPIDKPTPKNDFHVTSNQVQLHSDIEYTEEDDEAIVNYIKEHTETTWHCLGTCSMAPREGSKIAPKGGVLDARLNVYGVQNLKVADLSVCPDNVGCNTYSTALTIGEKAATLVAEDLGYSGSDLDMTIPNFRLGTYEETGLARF

O=P([O-])(O)O.[K+] [KH2 PO4]
Relative Enz. Act. [1]: 0

[Cl-].[Li+] [LiCl]
Relative Enz. Act. [1]: 0

[Cl-].[K+] [KCl]
Relative Enz. Act. [1]: 2

O=P([O-])(O)O.[Na+] [NaH2 PO4]
Relative Enz. Act. [1]: 0

CO [methanol]
Kd ([2]; estimated from 1/V vs 1/[S] plots, pH 7.5, read-out: binding constant for methanol substrate, KS): 600 µM

[Cl-].[Na+] [NaCl]
Relative Enz. Act. [1]: 1

[Cl-].[Cl-].[Mg+2] [MgCl2]
Relative Enz. Act. [1]: 0

CC(=O)O [NaAc]
Relative Enz. Act. [1]: 4

N#CS [KSCN]
EU/mL* at 15 min. [3]: 25 EU/mL

O=P([O-])([O-])O.[Na+].[Na+] [Na2 HPO4]
Relative Enz. Act. [1]: 4

[N-]=[N+]=[N-].[Na+] [NaN3, sodium azide]
Color at 15 min. ([3]; a few crystals (about 1 mg) added to 1 mL purified enzyme solution, room temperature): Red immediately | EU/mL* at 15 min. ([3]; a few crystals (about 1 mg) added to 1 mL purified enzyme solution, room temperature, 15 min): 75 EU/mL | Color on mixing with crude enzyme preparation [4]: Red color forms upon mixing | 1/V ([2]; NaN3 .0001 g/l, MeOH .004 M): .0488 | 1/V ([2]; NaN3 .0001 g/l, MeOH .016 M): .04 | 1/V ([2]; NaN3 .0002 g/l, MeOH .0005 M): .2632 | 1/V ([2]; NaN3 .0002 g/l, MeOH .001 M): .1429 | 1/V ([2]; NaN3 .0002 g/l, MeOH .002 M): .0725 | 1/V ([2]; NaN3 .0002 g/l, MeOH .004 M): .0588 | 1/V ([2]; NaN3 .0002 g/l, MeOH .008 M): .0455 | 1/V ([2]; NaN3 .0002 g/l, MeOH .016 M): .0377 | 1/V ([2]; NaN3 .0005 g/l, MeOH .0005 M): .625 | 1/V ([2]; NaN3 .0005 g/l, MeOH .001 M): .4 | 1/V ([2]; NaN3 .0005 g/l, MeOH .002 M): .1667 | 1/V ([2]; NaN3 .0005 g/l, MeOH .004 M): .1111 | 1/V ([2]; NaN3 .0005 g/l, MeOH .008 M): .0813 | 1/V ([2]; NaN3 .0005 g/l, MeOH .016 M): .0602 | 1/V ([2]; NaN3 .001 g/l, MeOH .001 M): 1 | 1/V ([2]; NaN3 .001 g/l, MeOH .002 M): .333 | 1/V ([2]; NaN3 .001 g/l, MeOH .004 M): .1667 | 1/V ([2]; NaN3 .001 g/l, MeOH .008 M): .111 | 1/V ([2]; NaN3 .001 g/l, MeOH .016 M): .0645 | Ki ([2]; estimated from 1/V vs 1/[S] plots, pH 7.5, read-out: binding constant for NaN3 inhibitor, Ki): 6 µM | type of inhibition ([2]; from 1/V vs 1/[S] plots): linear, mixed-type inhibition | fractional saturation, .PHI. ([5]; Excess (solid crystals) NaN3): 1.000 | fractional saturation, .PHI. ([5]; Moles N3^-/Moles Enzyme 1.15): .167 | fractional saturation, .PHI. ([5]; Moles N3^-/Moles Enzyme 1.54): .207 | fractional saturation, .PHI. ([5]; Moles N3^-/Moles Enzyme 1.92): .259 | fractional saturation, .PHI. ([5]; Moles N3^-/Moles Enzyme 2.31): .309 | fractional saturation, .PHI. ([5]; Moles N3^-/Moles Enzyme 3.02): .407 | fractional saturation, .PHI. ([5]; Moles N3^-/Moles Enzyme 3.85): .475 | fractional saturation, .PHI. ([5]; Moles N3^-/Moles Enzyme 4.61): .525 | fractional saturation, .PHI. ([5]; Moles N3^-/Moles Enzyme 5.38): .580 | fractional saturation, .PHI. ([5]; Moles N3^-/Moles Enzyme 6.25): .630 | fractional saturation, .PHI. ([5]; Moles N3^-/Moles Enzyme 6.92): .679 | fractional saturation, .PHI. ([5]; Moles N3^-/Moles Enzyme .38): .062 | fractional saturation, .PHI. ([5]; Moles N3^-/Moles Enzyme .77): .105 | number of azide binding sites (extrapolation of the stoichiometric line to the baseline) ([5]; plot of .PHI. vs ligand/enzyme mole ratio): 7.6 moles of azide per mole of enzyme
